One experiment concerns melan-a cells. The experiment can be described thus: Melanin assay in cultured murine melanocytes (melan-a). The class given is cell-based. The settings on record: melanin content, 72 hours incubation. Here is the method:
The Spectrum Collection library consisting of 2000 drug compounds or natural products was screened to identify novel pigmentation inhibitors or stimulators in cultured murine melanocytes (melan-a). Compounds were dissolved in dimethylsulfoxide (DMSO) to a final concentration of 10 mM. Screening was performed with cultured melanocytes in 24-well plates followed by melanin assay (see below). A minimum change of 50% in melanin formation was established as significant for a pigmentation inhibitor or stimulator. DMSO was used as a negative control and the widely used depigmenting agent, hydroquinone, was used as a positive control on every plate. Primary screening was performed at a final concentration of 1 μM and potential candidates from the primary screening were reconfirmed in duplicate at final concentrations of 1 and 5 μM.
Melan-a cells were plated at 5×10^4 cells per well in 1 ml of culture media in 24-well plates the day before adding the library compounds. All compounds were added at the indicated final concentrations. Cells were harvested after 72 hours of incubation, and melanin assay was performed.
For further test and mechanism of action studies, the compounds were purchased from either Sigma or MicroSource. These compounds were dissolved in dimethylsulfoxide (DMSO) to a final concentration of 10 mM, and were tested for their effect on melanin synthesis at the indicated final concentrations.
For the primary and secondary screening, cells were harvested and dissolved in 200 μl of 2N NaOH in 20% DMSO at 70° C. A 180-μl aliquot of the resulting solution was measured for absorbance at 490 nm.
Cells are harvested in extraction buffer (1% Triton X-100, 50 mM Tris, 2 mM EDTA, 150 mM NaCl, pH 7.5) containing a complete protease inhibitor cocktail (Roche). The lysates were centrifuged at 14,000 rpm for 10 minutes at 4° C. BCA protein assay kit (Pierce) was used to measure the protein concentrations of the supernatants, and bovine serum albumin was used as a standard. The remaining pellets were incubated with 100 μl ethanol-ether (1:1) for 10 minutes at room temperature. After removing the ethanol-ether, the pellets were dissolved in 200 μl of 2N NaOH in 20% DMSO at 70° C. A 180-μl aliquot of the resulting solution was measured for absorbance at 490 nm. The melanin contents were normalized to the total amount of protein.

Experiment [1] deals with Asian skin equivalent (MEL-A). In words: MelanoDerm pigmentation assay, Asian skin equivalent (MEL-A). The class given is cell-based, human. Here is the method:
MelanoDerm™, made by MatTek Corp., is a viable reconstituted three-dimensional human skin equivalent containing normal melanocytes and keratinocytes that are derived from African-American (MEL-B), Asian (MEL-A) or Caucasian (MEL-C) donors. Both MEL-A and MEL-B tissues were used in the current study, and they were maintained in the NMM-113 medium as recommended by the manufacturer.
Pubescine (from Sigma) was dissolved in 30% ethanol: 70% propylene glycol to a final concentration of 1.0 mM (equal to 356.6 μg/ml), and this was maintained constant and used on all samples tested. A 25 μl of its aliquot was applied topically to the MelanoDerm™ tissue (MEL-B) on Days 0, 1, 3, 6, 8 and 10. The MelanoDerm™ tissues were fed every other day with 5 ml fresh NMM-113. Prior to each application, the tissues were washed with 1 ml PBS to remove any residual test compound. Tissues were fixed on Days 10 and 13 for microscopic analysis and histological evaluation. In addition, duplicate tissues were frozen on Days 10 and 13 for the melanin assay.
Similar experiments were performed on Asian skin equivalent (MEL-A) except: the treatments were applied on Days 0, 1, 3, 6, 8, 10 and 13. Tissues were taken out on Days 13 and 16 for the various assays. […]
Procedure 1: the effects of pubescine on melanin synthesis in MEL-A or B were evaluated by light microscopy (views from the top surface of the tissue). […]

Experiment [2] concerns Tyr gene family proteins and gp100 in melan-a cells. In words: Cellular levels of Tyr gene family proteins and gp100 in melan-a cells (immunoblot). Conditions: various concentrations, 72 hrs, FIG. 3. The class given is cell-based, murine. Here is the method:
Melan-a cells were incubated with various concentrations of pubescine for 72 hrs. Cell lysates were prepared and separated by 7.5% sodium dodecyl sulfate-polyacrylamide gel and transferred to Immobilon-P membranes. Tyrosinase gene family proteins were detected with antibodies against each protein. The results are set forth in the gel of FIG. 3.
Background: A western blot detects proteins with antibodies after separation by electrophoresis.

Experiment [3] deals with Tyr, Tryp-1 or Lamp-1 in melan-a cells. In words: Sub-cellular localization of Tyr, Tyrp-1, Lamp-1 in melan-a cells (immunofluorescence). The class given is cell-based, murine. The settings on record: 10 μM, 72 hrs at 37° C., FIGS. 4A and 4B. The procedure:
Cells were cultured on cover slips, incubated with or without 10 μM pubescine for 72 hrs at 37° C. The cells were fixed with −20° C. methanol for 5 min and stained by immunofluorescence with antibodies for Tyr, Tyrp-1 and/or Lamp-1. The slides were analyzed with a confocal microscope (LSM 510, Zeiss).

SMILES strings stand for the structures.

In the experiment on melan-a cells, `COC(=O)[C@H]1[C@H]2C[C@H]3c4[nH]c5ccccc5c4CCN3C[C@@H]2CC[C@@H]1O` [ID 1, Corynanthine] registered a % after treatment @ 1 μM of 111% and a % after treatment @ 5 μM of 211%.
In the same order, the values of `CC[C@H]1[C@@H]2C[C@H]3[C@@H]4N(C)c5ccccc5[C@]45C[C@@H]([C@H]2[C@H]5O)N3[C@@H]1O` [ID 2, Ajmaline, reference compound] are 117% and 206%.
For `COC(=O)C1=CO[C@@H](C)[C@H]2CN3CCc4c([nH]c5ccccc45)[C@@H]3C[C@H]12` [ID 3, Ajmalicine, reference compound] the same measures were 106% and 133%.
For `COC(=O)[C@H]1[C@H]2C[C@@H]3c4[nH]c5cc(OC)ccc5c4CCN3C[C@H]2C[C@@H](OC(=O)c2cc(OC)c(OC)c(OC)c2)[C@@H]1OC` [ID 4, Reserpine, reference compound] the same measures were 117% and 133%.
Consider `COc1ccc2c3c([nH]c2c1)[C@@H]1C[C@H]2[C@@H](C[C@@H](O)[C@H](OC)[C@H]2C(=O)O)CN1CC3` [ID 5, Reserpic Acid], for which, in the experiment on melan-a cells, the % after treatment @ 1 μM turned out to be 111% and the % after treatment @ 5 μM was found to be 217%.
In the experiment on melan-a cells, `COC(=O)C1=CO[C@@H](C)[C@H]2CN3CCc4c([nH]c5cc(OC)ccc45)[C@@H]3C[C@H]12` [ID 6, Pubescine] returned a % after treatment @ 1 μM of 172% and a % after treatment @ 5 μM of 267%. Also, the “Fontana-Masson staining, melanin content” value in experiment [1] (Asian skin equivalent (MEL-A), FIG. 6) is “increase in the melanin content”. Also, the “Melanin content increase of Asian skin equivalent (MEL-A)” value in experiment [1] (pubescine 1.0 mM topical, 25 μl, FIG. 7) is recorded as around 40%. Besides, the “Cellular levels of tyrosinase family proteins and gp100” value in experiment [2] is “increases cellular levels of tyrosinase family proteins and gp100 in a dose-dependent manner”. The “Sub-cellular localization of Tyr, Tryp-1 or Lamp-1” value in experiment [3] is reported as “does not alter the sub-cellular localization”.

The values are drawn from patent publication US9138433B2, “Indole alkaloid compounds as melanogenesis promoters and uses thereof” (NEW YORK UNIVERSITY, priority 2010, dated 2015).
